“Also recorded” adds a separate entry of the source. Ends that are not written are not given here.
Legend:
[1] = tested on: Collagen IV; test: Immunostaining of liver cryosections for Collagen IV (DIO-NASH); assay type: in vivo; details: DIO-NASH mice, 3 months after injection in subcutaneous adipose tissue; vs untreated
Method: (§1) For immunofluorescence experiments, liver and kidneys freshly sampled were included in Optimal Cutting Temperature Compound™ (OCT™, Catalog #4583, Tissue-Tek® OCT™, Sakura® Finetek, Torrance, California, USA) and cryosections of 7 μm were cut with Cryostat Leica CM1950. Cryosections were washed with 1×PBS and fixated in 4% formaldehyde solution for 15 min (Catalog #: F555-4L, Sigma-Aldrich, Saint-Louis, Missouri, USA) and then permeabilized with 0.02% SDS-PBS for 30 seconds. Blocking solution was 5%-Bovine Serum Albumin (BSA) in PBS. Primary antibodies were diluted in blocking solution and incubated overnight and indicated secondary antibodies were diluted in PBS for 30 minutes. Nuclei were counterstained with Hoechst (Catalog #: D1306, Invitrogen, Carlsbad, California, USA). Slides were then mounted with Vectashield® Mounting Medium (Catalog #: H-1000, Vector Laboratories, Burlingame, California, USA). Images were acquired and analyzed with Zeiss Imager.Z2 microscope equipped with either Zeiss AxioVision or Zeiss ZEN 2012 software (Carl Zeiss Inc., Oberkochen, Germany). Anti-Collagen IV antibody, ab6586 from Abcam and LOXL2 antibody, GTX105085 from GeneTex were used.

[2] = tested on: hepatic lipid droplets; test: AdipoRed staining of liver sections (lipid droplets); assay type: in vivo; details: 3 months after one unique injection in adipose tissue; DIO male mice; AdipoRed/DAPI cryosections
Method: (§2) Mice presented were euthanized and their plasma and organs were sampled for analysis. […] Cryosection of the livers were then stained with Adipored and DAPI to detect the level of lipid droplets. […] Hepatic function is assessed by two liver related strong biomarkers namely (AST (Aspartate Aminotransferase) and ALT (Alanine Aminotransferase)), whose levels increase proportionately with liver damage.
Livers were isolated and briefly washed in PBS buffer (pH 7.4). after weighing the dried liver, for the liver to body weight ratio, a sliced sample of the liver were then placed in 4% paraformaldehyde (in 0.1M sodium phosphate buffer, pH 7.2) for 15 min, washed in PBS and incubated in AdipoRed dye (1/25; Lonza, Switzerland) with 30 μM DAPI (Sigma-Aldrich, USA) for 15 minutes. After 3 washes with PBS samples were mounted on slides and pictures were taken using Zeiss microscope.

[3] = tested on: ALT; test: STAM model of non-alcoholic steatohepatitis: plasma biochemistry (ALT); assay type: in vivo; details: STAM NASH mice, 25 μg per mouse SC once weekly 4-9 wks of age, sacrifice 9 wks; n = 6
Method: NASH was induced in 12 male mice by a single subcutaneous injection of 200 μg streptozotocin (STZ, Sigma-Aldrich, USA) solution 2 days after birth and feeding with high fat diet (HFD, 57 kcal % fat, Cat #HFD32, CLEA Japan, Inc., Japan) after 4 weeks of age. The peptide was administered subcutaneously in the adipose tissue in a volume of […] per mouse. The peptide was administered at a dose of 25 microgram (μg) per mouse once weekly. For plasma biochemistry, non-fasting blood was collected in polypropylene tubes with anticoagulant (Novo-Heparin, Mochida Pharmaceutical Co. Ltd., Japan) and centrifuged at 1,000×g for 15 minutes at 4° C. The supernatant was collected and stored at −80° C. until use. Plasma ALT level was measured by FUJI DRI-CHEM 7000 (Fujifilm, Japan). Six NASH mice were subcutaneously in the adipose tissue administered vehicle supplemented with ADPIF peptide at a dose of […] per mouse once weekly from 4 to 9 weeks of age.

[4] = tested on: LOXL2; test: Circulating (plasma) LOXL2 ELISA; assay type: in vivo; details: 3 months post a unique injection; DIO-NASH mice
Source text: (§3) For LOXL2 and GLP-1 measurements, the two commercially available kits: Lysyl Oxydase Like Protein 2 (LOXL2), Enzyme-linked Immunosorbent Assay Kit, Mus musculus, SEF552Mu, Cloud Clone Corp;

[5] = tested on: GLP-1; test: Circulating GLP-1 enzyme immunoassay in plasma; assay type: in vivo; details: 11 days post single adipose tissue injection, high fat/high glucose diet male mice
Method: Mice were injected with a single dose of either scramble peptide or PATAD or ADPIF. 11 days post injection, the mice were euthanized, and plasma was obtained and used for determination of circulating GLP1 from mice with the indicated treatment.
as §3
RayBio Human/Mouse/Rat GLP-1 Enzyme Immunoassay Kit, EIA-GLP1, RayBiotech were used with the indicated procedures from the manufacturer.

[6] = tested on: LOXL2; test: Immunostaining of liver cryosections for LOXL2 (DIO-NASH); assay type: in vivo; details: DIO-NASH mice, 3 months after injection in subcutaneous adipose tissue; vs untreated
Method: as §1

[7] = Glucose tolerance test (GTT) in diet induced obese mice; assay type: in vivo; details: fasting male DIO mice, single injection at day 0; subcutaneous glucose bolus; AUC D-5 vs D+6
Method: These are results obtained from series of glucose tolerance test (GTT) and data from two-time points namely 30 minutes and 120 minutes were used to generate these curves for both control and PATAD treated diet induced obese (DIO) and diabetic wild type male C57/B6 mice (control).
For this study, mice were on a C57/BL6 genetic background. All animals were housed in a temperature and humidity controlled facility, with a 12 h-light/12 h-dark cycle fed during the whole phase mice will be fed with a 60% high fat diet from Research Diets (D12492), and tap water will be provided ad libitum. Mice were fed and tested regularly for glucose tolerance test for their glucose tolerance and once they were glucose intolerant they were used for treatment.

[8] = tested on: AST (aspartate aminotransferase); test: Plasma AST ELISA; assay type: in vivo, mice; details: 3 months after a single subcutaneous peptide injection, n=4
Method: as §2
(§4) Plasma samples from the indicated mice were used to determine plasma content of either AST (aspartate aminotransferase) or […] (alanine aminotransferase) both robust indicators of liver damage were measured using commercially purchased ELISA kits. These parameters were determined according to manufacturer's procedure. • SEB214Mu (96 Tests): Enzyme-linked Immunosorbent Assay Kit For Aspartate Aminotransferase (AST), Cloud Clone Corp. • SEA207Mu (96 Tests): Enzyme-linked Immunosorbent Assay Kit For Alanine Aminotransferase (ALT), Cloud Clone Corp.

[9] = tested on: ALT (alanine aminotransferase); test: Plasma ALT ELISA; assay type: in vivo, mice; details: 3 months after a single subcutaneous peptide injection, n=4
Method: as §2, §4

Sequence: VECTTREKEVLASLDKAAFLTQLHS (not fully specified (bridges)) [ADPIF, R and S carry the stapling, preferably 2-(7-octenyl)arginine and 2-(4-pentenyl)serine]
- Collagen IV expression in liver (immunostaining) [1]: effective in preventing the progression of fibrotic markers; also recorded: reduced
- size of the hepatic lipid droplets [2]: clearly showed a decrease; also recorded: global decrease in the sizes of the lipid droplets; also recorded: decrease in the diameter of the lipid droplets
- Plasma ALT (mean ± SD) [3]: 54 ± 9 U/L
- circulation (plasma) levels of LOXL2 [4]: significantly reduced; also recorded: reduced the LOXL2 levels by half
- circulating levels of GLP-1 [5]: restored high circulating levels of GLP1, with ADPIF inducing a greater increase than PATAD; also recorded: more active than PATAD peptide; also recorded: restore GLP1 circulating levels back to lean controls
- LOXL2 expression in liver (immunostaining) [6]: effective in preventing the progression of fibrotic markers; also recorded: reduced
- glucose tolerance test / prevention of hyperglycemia [7]: better effect in glucose tolerance test than the PATAD peptide; also recorded: more active than PATAD peptide in preventing hyperglycemia
- circulating levels of AST [8]: dramatic decrease; also recorded: effective in reducing
- circulating levels of ALT [9]: dramatic decrease; also recorded: more active in reducing circulating levels of ALT
